Reference: US20240165023A1, “LIQUID PHARMACEUTICAL COMPOSITION” (Verona Pharma PLC, priority 2022, published 2024)

Legend:
[1] = test system: patients with moderate to severe COPD; experiment: Clinical study of nebulised ensifentrine 3 mg BID vs placebo, lung function (FEV1) in COPD; type: in vivo, human; conditions: 3 mg BID by nebuliser
Description: A clinical study was conducted to determine the efficacy of ensifentrine in treating COPD compared with placebo. Ensifentrine was administered by nebuliser at a dose of 3 mg twice daily (BID) for 24 weeks. The study was a multi-centre, randomized, double-blind, parallel-group, placebo-controlled trial with around 800 patients and 5:3 randomization.
The study population included patients aged 40-80 years with moderate to severe COPD (FEV1 30%-70% p.n., FEV1/forced vital capacity (FVC) ratio <0.7, with mMRC 2). The randomization stratified (a) the use of stable background maintenance LAMA or LABA therapy use (approx. 50%. yes or no) and (b) cigarette smoking (current or former). Inhaled corticosteroid (ICS) maintenance therapy was permitted in up to 20% of patients under certain provisions.
The primary endpoint of the study was change from baseline in average FEV1 area under the curve (AUC)0-12 h post-dose at week 12. Secondary endpoints of the study included: peak FEV1 over 4 hours post-dose at Week 12; morning trough FEV1 at Week 12; and other endpoints including moderate/severe COPD exacerbations frequency over 24 Weeks.
Baseline FEV1 is the mean of the two measurements taken before study medication on the day of first dosing, i.e. <40 minutes and just prior to dosing, both pre-dose on day 1.
Average FEV1 AUC0-12 h is defined as area under the curve over 12 hours of the FEV1, divided by 12 hours.
The investigational product and placebo were provided in 2.5 mL unit dose format in an ampule and administered via a nebuliser. The formulation of the investigational product (ensifentrine suspension formulation comprising crystalline polymorph Form I of ensifentrine) and placebo are shown in Table 1 below.

[2] = Plasma pharmacokinetics of ensifentrine after administration of the composition to healthy patients; type: in vivo; conditions: human, inhaled
[3] = Plasma pharmacokinetics of ensifentrine in COPD patients, popPK model simulation from trial samples; type: in vivo, human
Description: Plasma concentrations of ensifentrine for the assessment of pharmacokinetic (PK) parameters were measured using validated bioanalytical methods for ensifentrine in human plasma with LLOQ of 5 pg/mL.
Samples were taken on the following schedule: • Week 6: 1.0 h (±0.5 h) and 2.5 h (±0.5 h) (even sites) or 1.5 h and 4 h (±1 h) (odd sites); • Week 12: pre-dose (−0.5 h), 4 to 6 h, and 8 to 12 h (even sites) or 0.5 h (±0.25 h), 3 h (±0.5 h), and 6 to 8 h (odd sites); • Week 24: pre-dose (−0.5 h) and 1.5 h (even sites) or pre-dose (−0.5 h) and 1 h (±0.5 h) (odd sites)
Based on the samples taken during the trial, PK data was modelled for COPD patients with normal renal function. The final popPK model was used to predict parameter estimates in a virtual population of 50000 subjects (per covariate condition) for simulation of ensifentrine PK following nebulization of 3 mg in a population reflecting the population in the trial with normal renal function or mild renal impairment, or with moderate renal impairment. Uncertainty in fixed effects and covariance matrix parameters as well as residual variability were included in the simulations. The parameter uncertainty was accounted for by random resampling (without replacement) of 500 sets of parameter estimates from the bootstrap (750 replicates) in R to create 500 NONMEM simulation control streams. From each set of parameter estimates, the PK profiles for 100 subjects (for each covariate condition) were simulated with IV and IOV from the covariance matrix and residual error in NONMEM. Individual subject concentrations were simulated using NONMEM version 7.4.3, and PK parameters were calculated using R version 3.4.0.

[4] = human, plasma, inhaled, 3 mg, patients with COPD
[5] = nebulization of 3 mg, COPD patients with normal renal function, popPK simulation in virtual population

## COc1cc2c(cc1OC)-c1c/c(=N\c3c(C)cc(C)cc3C)n(CCNC(N)=O)c(=O)n1CC2 [Ensifentrine, N-(2-{(2E)-9,10-dimethoxy-4-oxo-2-[(2,4,6-trimethylphenyl)imino]-6,7-dihydro-2H-pyrimido[6,1-a]isoquinolin-3(4H)-yl}ethyl)urea]
[1]; Week 12
  primary endpoint of average FEV1 (AUC)0-12 h at Week 12: met
[1]; Week 12, n = 498, COPD patients
  Average FEV1 (AUC)0-12 h post-dose at Week 12: Change from Baseline (CFB) Least Squares Mean: 48.2 mL
[1]; Week 12, vs placebo (n = 291)
  Average FEV1 (AUC)0-12 h post-dose at Week 12: Placebo-corrected CFB LS Mean Diff.: 93.9 mL
[1]; all subgroups
  improvement in lung function in subgroups of COPD patients: improvement in lung function with ensifentrine that was statistically significant
[2]
  Cmax: 0.852 ng/mL
[2]; read-out: mean AUC0-∞
  AUC(0-inf): 5.93 ng·h/mL
[3]; COPD patients vs healthy patients
  systemic exposure in COPD patients compared with healthy patients: lower systemic exposure
[3]; [4]
  AUC: 2.45 ng·h/mL
  Cmax: 0.522 ng/mL
[3]; [5]
  AUC0-tau, Median (90% prediction interval): 2450 (882-7500) pg/mL * h
  Cmax, Median (90% prediction interval): 522 (173-1330) pg/mL
  tmax, Median: 1.0 h
